Reference: patent publication US7348402B2, “Antimicrobial peptide, its analogs and antimicrobial composition comprising them” (priority 2002, dated 2008)
No end group written: not given here.

Experiments:
Type in all cases: cell-based
[1] = test system: E. coli; assay: Cell penetration activity by confocal microscopy (FITC-labeled peptides); conditions: FITC-labeled peptide applied to fixed E. coli for 5 minutes
Description: FIGS. 1A˜1D are the results of analyzing the cell penetration activity of the new antimicrobial peptides by confocal microscopy. To emphasize the location of the antimicrobial peptides, color was eliminated from the images. The white area in FIGS. 1A˜1D is the antimicrobial peptide penetrated within the cell.
The cell penetration activity of the peptides prepared in Example 1 was observed by confocal microscopy. After inoculating and culturing E. coli in trypticase soy broth at 37° C. overnight, they were inoculated in new media and cultured for 2 hours to exponential growth phase. After washing E. coli with 10 mM NAPB (sodium phosphate buffer) and diluting to 10^5 CFU/ml, the above diluted E. coli was fixed for 30 min on glass-slides coated with poly-L-lysine. The N-terminus of the peptides prepared in Example 1 was labeled with FITC (fluoresceinisothicyanate), and the labeled peptides were applied to E. coli fixed on the glass-slides for 5 minutes. The glass-slides were washed with 10 mM NAPB and observed them by confocal microscopy.

[2] = test system: human red blood cells (hRBC); assay: Hemolytic activity on human red blood cells
Description: After separating the precipitated human red blood cells (hRBC) from 3 ml of human blood, they were washed with PBS (phosphate buffered saline) and diluted to make the total volume of 20 ml. In 190 μl of the prepared hRBC solution, 10 μl of each peptide sample (4 μg/μl ) prepared in Example 1 was added to make the final concentration of 200 μg/ml, reacted for 1 h at 37° C. and centrifuged for 5 min at 4000 rpm. […] The absorbance of the sample treated with 0.2% Triton X-100 was set to represent 100% hemolysis and the percent (%) hemolysis of each sample was relatively calculated from each measured absorbance, as shown in Table 3.

[3] = test system: Cryptococcus neoformans (ATCC 34881); conditions: ATCC 34881, 12 h
Excerpt: (§1) The microorganisms used in the present invention include Gram-positive bacteria such as Bacillus subtilis (ATCC 62037), Staphylococcus aureus (ATCC 15752) and Streptococcus mutans (ATCC 25175), Gram-negative bacteria such as Escherichia coli (ATCC 27325), Salmonella enteritidis (ATCC 15277) and Pseudomonas putida (ATCC 17426) and fungi such as Candida albicans (ATCC 10231), Saccharomyces cerevisiae (ATCC 44774) and Cryptococcus neoformans (ATCC 34881), obtained from American Type Culture Collection (ATCC).
(§2) The antimicrobial activity of the peptides prepared in Example 1 was determined against microorganisms by 96-well microdilution minimal inhibitory concentration assay. After overnight culturing the bacteria and fungi in trypticase soy broth (TSB) and Saboraud (SAB) at 37° C. and 30° C., respectively, they were inoculated in new media and cultured for 2 hours to exponential growth phase. After diluting the microorganisms to 10^5 per 1 ml, 190 μl was inoculated in each 96-well plate, and 10 μl of serially diluted peptides were added in each well.

[4] = test system: Bacillus subtilis (ATCC 62037); conditions: ATCC 62037, 12 h
Excerpt: as §1, §2

[5] = test system: Salmonella enteritidis (ATCC 15277); conditions: ATCC 15277, 12 h
Excerpt: as §1, §2

[6] = test system: Staphylococcus aureus (ATCC 15752); conditions: ATCC 15752, 12 h
Excerpt: as §1, §2

[7] = test system: Escherichia coli (ATCC 27325); conditions: ATCC 27325, 12 h
Excerpt: as §1, §2

[8] = test system: Streptococcus mutans (ATCC 25175); conditions: ATCC 25175, 12 h
Excerpt: as §1, §2

[9] = test system: Candida albicans (ATCC 10231); conditions: ATCC 10231, 12 h
Excerpt: as §1, §2

[10] = test system: Pseudomonas putida (ATCC 17426); conditions: ATCC 17426, 12 h
Excerpt: as §1, §2

[11] = test system: Saccharomyces cerevisiae (ATCC 44774); conditions: ATCC 44774, 12 h
Excerpt: as §1, §2

Row | Compound | cell penetration activity [1] | A567 ([2]; absorbance of supernatant diluted 10 times, peptide 200 μg/ml, 1 h at 37° C.) | hemolysis of hRBC (in words) ([2]; concentration of 200 μg/ml) | Minimum Inhibitory Concentration [3] | Minimum Inhibitory Concentration [4] | Minimum Inhibitory Concentration [5] | Minimum Inhibitory Concentration [6] | Minimum Inhibitory Concentration [7] | Minimum Inhibitory Concentration [8] | Minimum Inhibitory Concentration [9] | Minimum Inhibitory Concentration [10] | Minimum Inhibitory Concentration [11]
1 | 33 (KLVRNWPIGKLVRKLVRKLVR; antimicrobial peptide) [compound 33] | penetrate into E. coli cells |  |  |  |  |  |  |  |  |  |  | 
2 | CC[C@H](C)[C@H](NC(=O)CN)C(=O)NCC(=O)N[C@@H](C)C(=O)N[C@H](C(=O)N[C@@H](CC(C)C)C(=O)N[C@@H](CCCCN)C(=O)N[C@H](C(=O)N[C@@H](CC(C)C)C(=O)N[C@H](C(=O)N[C@H](C(=O)NCC(=O)N[C@@H](CC(C)C)C(=O)N1CCC[C@H]1C(=O)N[C@@H](C)C(=O)N[C@@H](CC(C)C)C(=O)N[C@H](C(=O)N[C@@H](CO)C(=O)N[C@@H](Cc1c[nH]c2ccccc12)C(=O)N[C@H](C(=O)N[C@@H](CCCCN)C(=O)N[C@@H](CCCNC(=N)N)C(=O)N[C@@H](CCCCN)C(=O)N[C@@H](CCCNC(=N)N)C(=O)N[C@@H](CCC(N)=O)C(=O)N[C@@H](CCC(N)=O)C(N)=O)[C@@H](C)CC)[C@@H](C)CC)[C@@H](C)O)[C@@H](C)O)C(C)C)C(C)C [Melittin, melittin] |  | 3.17 | destroy almost all hRBC |  |  |  |  |  |  |  |  | 
3 | GIGKFLHSAKKFGKAFVGEIMNS [Magainin, magainin, reference compound] | bind with cell membrane |  |  |  |  |  |  |  |  |  |  | 
4 | RVLKQWPIGRVLKRVLKRVLK [compound 13] |  |  |  | 1 µg/mL | 2 µg/mL | 1 µg/mL | 1 µg/mL | 1 µg/mL | 2 µg/mL | 1 µg/mL | 1 µg/mL | 2 µg/mL
5 | RVLKRVLKRVLKNWPIGRVLK-NH2 [compound 72] |  |  |  | 1 µg/mL | 1 µg/mL | 1 µg/mL | 1 µg/mL | 1 µg/mL | 2 µg/mL | 1 µg/mL | 1 µg/mL | 2 µg/mL
6 | RVLKRVLKRVLKQWPIGRVLK [compound 47] |  |  |  | 1 µg/mL | 1 µg/mL | 1 µg/mL | 1 µg/mL | 1 µg/mL | 2 µg/mL | 1 µg/mL | 1 µg/mL | 2 µg/mL
7 | RVLRQWPIGRVLRRVLRRVLR [compound 5] |  |  |  | 1 µg/mL | 1 µg/mL | 1 µg/mL | 1 µg/mL | 1 µg/mL | 1 µg/mL | 1 µg/mL | 1 µg/mL | 2 µg/mL
8 | RVLRRVLRRVLRQWPIGRVLR [compound 39] |  |  |  | 1 µg/mL | 2 µg/mL | 1 µg/mL | 2 µg/mL | 1 µg/mL | 2 µg/mL | 2 µg/mL | 1 µg/mL | 2 µg/mL
9 | RVVKNWPIGRVVKRVVKRVVK [compound 26] |  |  |  | 1 µg/mL | 1 µg/mL | 1 µg/mL | 1 µg/mL | 2 µg/mL | 1 µg/mL | 2 µg/mL | 1 µg/mL | 2 µg/mL
10 | RVVKRVVKRVVKNWPIGRVVK [compound 60] |  |  |  | 1 µg/mL | 1 µg/mL | 2 µg/mL | 2 µg/mL | 2 µg/mL | 2 µg/mL | 1 µg/mL | 1 µg/mL | 1 µg/mL
11 | RVVRNWPIGRVVRRVVRRVVR [compound 18] |  |  |  | 1 µg/mL | 1 µg/mL | 2 µg/mL | 1 µg/mL | 1 µg/mL | 2 µg/mL | 1 µg/mL | 1 µg/mL | 1 µg/mL
12 | RVVRQWPIGRVVRRVVRRVVR [compound 1] |  |  |  | 1 µg/mL | 2 µg/mL | 1 µg/mL | 1 µg/mL | 1 µg/mL | 2 µg/mL | 2 µg/mL | 1 µg/mL | 2 µg/mL
13 | RVVRRVVRRVVRNWPIGRVVR [compound 52] |  |  |  | 1 µg/mL | 1 µg/mL | 2 µg/mL | 1 µg/mL | 1 µg/mL | 2 µg/mL | 1 µg/mL | 1 µg/mL | 1 µg/mL
14 | RVVRRVVRRVVRQWPIGRVVR [compound 35] |  |  |  | 1 µg/mL | 1 µg/mL | 1 µg/mL | 1 µg/mL | 2 µg/mL | 1 µg/mL | 1 µg/mL | 1 µg/mL | 2 µg/mL
15 | SEQ ID NO: 1 (RVVRQWPIGRVVRRVVRRVVR; antimicrobial peptide) | penetrate into E. coli cells |  |  |  |  |  |  |  |  |  |  | 
